Measurements: article PMC7377239, “Cardiovascular Effects of Polychlorinated Biphenyls and Their Major Metabolites” (Environmental Health Perspectives, 2020)
Structures can show the parent of a compound that is named as a salt. Where two headings read alike, the source gives them in different places.

Tests used:
[1] = system: iCell endothelial cells (human iPSC-derived ECs); test: High-content imaging cytotoxicity in iCell endothelial cells, 24 h; format: cell-based; settings: Homo sapiens, Endothelial cell, endothelial cells (endo), 24 hr
How it was run: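 Human iPSC-derived endothelial cells (passages 1–5) were grown to a fibronectin-coated monolayer, then exposed 24 h at 37 °C with 0.5% DMSO vehicle. Staining was Hoechst 33342, MitoTracker Orange and calcein AM, read by high-content imaging. Point of departure came from 4-parameter logistic fits, with a 1-SD vehicle cutoff and 100 µM as the top concentration.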

[2] = system: iPSC-CMs, iPSC-ECs and HUVECs phenotypes; test: ToxPi 2.0 integration of POD values and physicochemical descriptors; set-up: species or system human; settings: ToxPi-scaled (0-1) score; for huvec.cyto.24hr / huvec.mito.24hr / huvec.mitoint.24hr / huvec.nma.24hr / huvec.tc.24hr / huvec.mtl.18hr / huvec.tlps.18hr / huvec.tta.18hr / huvec.ttl.18hr: HUVECs; for huvec.mtl.18hr / huvec.tlps.18hr / huvec.tta.18hr / huvec.ttl.18hr / endo.mtl.18hr / endo.tlps.18hr / endo.tta.18hr / endo.ttl.18hr: tube formation; for cm.amp.avg.90min / cm.amp.cv.90min / cm.bpm.90min / cm.cam.90min / cm.decay.rise.90min / cm.mii.90min / cm.mito.90min / cm.spacing.cv.90min / cm.tc.90min / cm.amp.avg.24hrs / cm.amp.cv.24hrs / cm.bpm.24hrs / cm.cam.24hrs / cm.decay.rise.24hrs / cm.mii.24hrs / cm.mito.24hrs / cm.spacing.cv.24hrs / cm.tc.24hrs: iPSC cardiomyocytes; for endo.cyto.24hr / endo.mito.24hr / endo.mitoint.24hr / endo.nma.24hr / endo.tc.24hr / endo.mtl.18hr / endo.tlps.18hr / endo.tta.18hr / endo.ttl.18hr: iPSC endothelial cells
Text: Phenotypic responses were quantitatively assessed using concentration–response modeling as detailed elsewhere ([Sirenko et al. 2017]). Briefly, phenotypic readouts were normalized to vehicle controls and fit to a four-parameter logistic model in R studio software (version 3.1.1; R Development Core Team). Following EPA guidance on dose–response modeling, a cutoff of one standard deviation across means of vehicle control (i.e., 0.5% vol/vol DMSO in cell culture media) wells was applied to determine the point-of-departure (POD) values ([U.S. EPA 2012]). In the absence of a concentration–response, the highest tested concentration (i.e., 100μM ) was assigned as “no observable adverse effect level.” The concentration–response assessment R script, as well as templates for vehicle and concentration–response data, are available as a supplement to Sirenko et al. ([2017]). The ability of physicochemical properties to predict differences in PODs were evaluated by multiregression and mixed-effects modeling using R.
POD values were then integrated using ToxPi 2.0 ([Marvel et al. 2018]) software. In ToxPi, each slice is representative of cell type– and time-point–specific phenotypes. The area of each slice is proportional to the relative value (e.g., bioactivity or physicochemical descriptor value) of the chemical within the data set. ToxPi scores were used to rank PCBs and their metabolites according to their overall bioactivity and to determine variability in total observable biological responses and chemical characteristics for each major metabolite class and chlorination status (mono-, hexa-chlorinated). Additional visualizations such as dumbbell and principal components analysis plots were generated in R Studio (version 1.1.456; R version 3.5.1; R Development Core Team) using the ggplot2 package.

[3] = cyto, read-out: POD endo.cyto.24hr
[4] = mito, read-out: POD endo.mito.24hr
[5] = mitoint, read-out: POD endo.mitoint.24hr
[6] = nma, read-out: POD endo.nma.24hr

Structure (SMILES): Oc1ccc(O)c(-c2ccc(Cl)cc2)c1 [2',5'-diOH-PCB 3, 4-Chloro-2′,5′-dihydroxybiphenyl]
- minimal effective concentration [1, 3]: 6.71 µM
- minimal effective concentration [1, 4]: 6.71 µM
- minimal effective concentration [1, 5]: 44.6 µM
- minimal effective concentration [1, 6]: 13.7 µM
- minimal effective concentration ([1]; tc, read-out: POD endo.tc.24hr): 5.78 µM
- huvec.cyto.24hr [2]: 0.7001
- huvec.mito.24hr [2]: 0.7865
- huvec.mitoint.24hr [2]: 0.6634
- huvec.nma.24hr [2]: 0.309
- huvec.tc.24hr [2]: 0.7001
- huvec.mtl.18hr [2]: 0.9783
- huvec.tlps.18hr [2]: 0.7891
- huvec.tta.18hr [2]: 0.8497
- huvec.ttl.18hr [2]: 0.663
- cm.amp.avg.90min [2]: 0.2608
- cm.amp.cv.90min [2]: 0.5898
- cm.bpm.90min [2]: 0.1802
- cm.cam.90min [2]: 0.4648
- cm.decay.rise.90min [2]: 0.2325
- cm.mii.90min [2]: 0.9473
- cm.mito.90min [2]: 0.8423
- cm.spacing.cv.90min [2]: 0.3549
- cm.tc.90min [2]: 0.4501
- cm.amp.avg.24hrs [2]: 0.4147
- cm.amp.cv.24hrs [2]: 0.7626
- cm.bpm.24hrs [2]: 0.7331
- cm.cam.24hrs [2]: 0.5361
- cm.decay.rise.24hrs [2]: 0.935
- cm.mii.24hrs [2]: 1
- cm.mito.24hrs [2]: 1
- cm.spacing.cv.24hrs [2]: 1
- cm.tc.24hrs [2]: 0.9136
- endo.cyto.24hr [2]: 0.4719
- endo.mito.24hr [2]: 0.4719
- endo.mitoint.24hr [2]: 0.1112
- endo.nma.24hr [2]: 0.3504
- endo.tc.24hr [2]: 0.5028
- endo.mtl.18hr [2]: 0.5595
- endo.tlps.18hr [2]: 0.8388
- endo.tta.18hr [2]: 0.3744
- endo.ttl.18hr [2]: 0.3867

Structure (SMILES): Oc1ccccc1-c1ccc(Cl)cc1 [2'-OH-PCB 3]
- minimal effective concentration [1, 3]: 44.3 µM
- minimal effective concentration [1, 4]: 44.3 µM
- minimal effective concentration [1, 5]: 100 µM
- minimal effective concentration [1, 6]: 1.82 µM
- minimal effective concentration ([1]; tc, read-out: POD endo.tc.24hr): 68.2 µM
- huvec.cyto.24hr [2]: 0.3062
- huvec.mito.24hr [2]: 0.3804
- huvec.mitoint.24hr [2]: 0.2116
- huvec.nma.24hr [2]: 0.5273
- huvec.tc.24hr [2]: 0.3062
- huvec.mtl.18hr [2]: 0
- huvec.tlps.18hr [2]: 0.9781
- huvec.tta.18hr [2]: 0
- huvec.ttl.18hr [2]: 0
- cm.amp.avg.90min [2]: 1
- cm.amp.cv.90min [2]: 1
- cm.bpm.90min [2]: 0.6048
- cm.cam.90min [2]: 0.4595
- cm.decay.rise.90min [2]: 0.9737
- cm.mii.90min [2]: 0.8925
- cm.mito.90min [2]: 0.3599
- cm.spacing.cv.90min [2]: 0.3323
- cm.tc.90min [2]: 0.4365
- cm.amp.avg.24hrs [2]: 0.2407
- cm.amp.cv.24hrs [2]: 0.05985
- cm.bpm.24hrs [2]: 0.1658
- cm.cam.24hrs [2]: 0.1217
- cm.decay.rise.24hrs [2]: 0.6737
- cm.mii.24hrs [2]: 0.7202
- cm.mito.24hrs [2]: 0.2606
- cm.spacing.cv.24hrs [2]: 0.1842
- cm.tc.24hrs [2]: 0.2359
- endo.cyto.24hr [2]: 0.1423
- endo.mito.24hr [2]: 0.1423
- endo.mitoint.24hr [2]: 0
- endo.nma.24hr [2]: 0.7069
- endo.tc.24hr [2]: 0.06754
- endo.mtl.18hr [2]: 0.2097
- endo.tlps.18hr [2]: 0.3809
- endo.tta.18hr [2]: 0.1099
- endo.ttl.18hr [2]: 0.1352

Structure (SMILES): Oc1cccc(-c2ccc(Cl)cc2)c1 [3'-OH-PCB 3]
- minimal effective concentration [1, 3]: 45.8 µM
- minimal effective concentration [1, 4]: 45.8 µM
- minimal effective concentration [1, 5]: 100 µM
- minimal effective concentration [1, 6]: 9.75 µM
- minimal effective concentration ([1]; tc, read-out: POD endo.tc.24hr): 53.2 µM
- huvec.cyto.24hr [2]: 0.4672
- huvec.mito.24hr [2]: 0.5506
- huvec.mitoint.24hr [2]: 0.1749
- huvec.nma.24hr [2]: 1
- huvec.tc.24hr [2]: 0.4672
- huvec.mtl.18hr [2]: 1
- huvec.tlps.18hr [2]: 0.8699
- huvec.tta.18hr [2]: 0.6576
- huvec.ttl.18hr [2]: 0.5155
- cm.amp.avg.90min [2]: 0.6872
- cm.amp.cv.90min [2]: 0.2705
- cm.bpm.90min [2]: 0.8835
- cm.cam.90min [2]: 0.7562
- cm.decay.rise.90min [2]: 0.4777
- cm.mii.90min [2]: 0.3912
- cm.mito.90min [2]: 0.7743
- cm.spacing.cv.90min [2]: 0.07935
- cm.tc.90min [2]: 0.7836
- cm.amp.avg.24hrs [2]: 0.4464
- cm.amp.cv.24hrs [2]: 0.3812
- cm.bpm.24hrs [2]: 0.4553
- cm.cam.24hrs [2]: 0.2634
- cm.decay.rise.24hrs [2]: 0.8154
- cm.mii.24hrs [2]: 0.3889
- cm.mito.24hrs [2]: 0.4239
- cm.spacing.cv.24hrs [2]: 0.8008
- cm.tc.24hrs [2]: 0.4277
- endo.cyto.24hr [2]: 0.1365
- endo.mito.24hr [2]: 0.1365
- endo.mitoint.24hr [2]: 0
- endo.nma.24hr [2]: 0.4106
- endo.tc.24hr [2]: 0.1112
- endo.mtl.18hr [2]: 0.5876
- endo.tlps.18hr [2]: 0.7333
- endo.tta.18hr [2]: 0.4844
- endo.ttl.18hr [2]: 0.4865

Structure (SMILES): O=S(=O)(O)Oc1cccc(-c2ccc(Cl)cc2)c1 [3'-PCB 3 sulfate]
- minimal effective concentration [1, 3]: 100 µM
- minimal effective concentration [1, 4]: 100 µM
- minimal effective concentration [1, 5]: 100 µM
- minimal effective concentration [1, 6]: 100 µM
- minimal effective concentration ([1]; tc, read-out: POD endo.tc.24hr): 100 µM
- huvec.cyto.24hr [2]: 0
- huvec.mito.24hr [2]: 0
- huvec.mitoint.24hr [2]: 0
- huvec.nma.24hr [2]: 0
- huvec.tc.24hr [2]: 0
- huvec.mtl.18hr [2]: 0.4173
- huvec.tlps.18hr [2]: 0
- huvec.tta.18hr [2]: 0
- huvec.ttl.18hr [2]: 0
- cm.amp.avg.90min [2]: 0
- cm.amp.cv.90min [2]: 0
- cm.bpm.90min [2]: 0.07423
- cm.cam.90min [2]: 0
- cm.decay.rise.90min [2]: 0
- cm.mii.90min [2]: 0.03988
- cm.mito.90min [2]: 0
- cm.spacing.cv.90min [2]: 0
- cm.tc.90min [2]: 0
- cm.amp.avg.24hrs [2]: 0
- cm.amp.cv.24hrs [2]: 0
- cm.bpm.24hrs [2]: 0
- cm.cam.24hrs [2]: 0
- cm.decay.rise.24hrs [2]: 0
- cm.mii.24hrs [2]: 0
- cm.mito.24hrs [2]: 0
- cm.spacing.cv.24hrs [2]: 0
- cm.tc.24hrs [2]: 0
- endo.cyto.24hr [2]: 0
- endo.mito.24hr [2]: 0
- endo.mitoint.24hr [2]: 0
- endo.nma.24hr [2]: 0
- endo.tc.24hr [2]: 0
- endo.mtl.18hr [2]: 0.5389
- endo.tlps.18hr [2]: 0.1522
- endo.tta.18hr [2]: 0.1963
- endo.ttl.18hr [2]: 0.2248
